Reference: ChEMBL document CHEMBL1134427, “Synthesis and photophysical properties of new fluorinated benzo[c]xanthene dyes as intracellular pH indicators” (Bioorg Med Chem Lett, 2001)

Experiment: pKa value by using fluorescence emission spectra
Type: physicochemical
For `CN(C)c1ccc2c(-c3cc(C(=O)O)ccc3C(=O)O)c3cc(F)c4cc(=O)ccc4c3oc2c1`, the pKa was 7.2. Work on `CN(C)c1ccc2c(-c3cc(C(=O)O)ccc3C(=O)O)c3ccc4cc(=O)ccc4c3oc2c1` yielded a pKa of 7.5. `CN(C)c1ccc2c(-c3cc(C(=O)O)ccc3C(=O)O)c3ccc4c(F)c(=O)ccc4c3oc2c1` showed a pKa of 6.4.
